How the values were obtained:
ob/ob mice [1] = experiment: Plasma glucose, cGMP and triglyceride levels in ob/ob mice, oral gavage, 5 day study; assay type: in vivo; settings: mean ± SEM; for Changes in Plasma Glucose Concentrations: over 5 day period; for Plasma Triglyceride Level: day 5, 3 hours after dose
Description: (§1) The selective PDE5 inhibitor compounds to be tested were solubilized in 10% DMSO/0.1% pluronics and dosed via oral gavage using mouse oral feeding needles (20 gauge, Popper & Sons, Inc., New Hyde Park, N.Y.). A volume of 4 ml/kg weight was administered for each dose. Compounds were tested at doses ranging from 1-50 mg/kg. Alternatively, the test selective PDE5 inhibitor compound was administered in the drinking water and found to produce similar reductions in plasma glucose and triglycerides to the reductions observed for the same compound when administered by oral gavage.
(§2) Male ob/ob mice obtained from Jackson Laboratories (Bar Harbor, ME) were used in the studies at 6 to 10 weeks of age. Mice were housed five per cage and allowed free access to D11 mouse chow (Purina, Brentwood, Mo.) and water.
(§3) Mice were allowed to acclimate to the Pfizer animal facilities for 1 week prior to the start of the study. On day one, retro-orbital blood samples were obtained and plasma glucose was determined as described hereinafter. […] On day one, mice were dosed with vehicle or a test selective PDE5 inhibitor compound only in the afternoon. Subsequently, mice were dosed twice a day on day 2-4 in the morning and in the afternoon. On day 5, the mice received an a.m. dose and bled 3 hours later for plasma preparation for glucose and triglyceride analysis as described below. Alternatively, test selective PDE5 inhibitor compound was administered in the drinking water commencing on the afternoon of day 1 and continuing through day 5, when mice were then bled for plasma preparation for glucose and triglyceride analysis as described below. Terminal plasma samples were collected on day 5 following the retro-orbital sinus bleed as described below. Body weight was measured on days 1 and 5 of the study, and food consumption was assessed over the 5 day period.
(§4) On the morning of the last day of the study mice were dosed with test compound or vehicle at approximately 8:00 am. Three hours after dosing, 25 μL of blood was obtained via the retro-orbital sinus and added to 100 μL of 0.025% heparinized-saline in Denville Scientific microtubes. The tubes were spun at the highest setting in a Beckman Microfuge 12 for 2 minutes. Plasma was collected for plasma glucose and triglyceride determination. The mice were then sacrificed by decapitation and ˜1 ml of blood was collected in Becton-Dickinson Microtainer brand plasma separator tubes with lithium heparin. The tubes were spun in a Beckman Microfuge 12 at the maximum setting for five minutes. Plasma was collected in 1.5 ml Eppendorf tubes and snap frozen in liquid nitrogen. Plasma samples were stored at −80° C. until analyzed.
(§5) Plasma glucose and triglycerides were measured using the Alcyon Clinical Chemistry Analyzer (Abbott Laboratories, Abbott Park, Ill.) using kits supplied by Abbott. Plasma cGMP was measured using the Biotrak enzyme-immunoassay system by Amersham (Piscataway, N.J.). Via a similar technique the plasma insulin can be assessed by the Mercodia ELISA Insulin kit by ALPCO (Uppsala, Sweden). All assays were conducted according to instructions provided by the manufacturers.
(§6) Comparisons between drug treatments and appropriate vehicles were done by Student's t-test.

[2] = system: non-diabetic subjects with the insulin resistance syndrome; experiment: Clinical Trial Data 1: 28-day clinical trial with sildenafil, serum triglyceride levels; assay type: in vivo, human; settings: for Fall in serum triglycerides from baseline / Fall in serum triglyceride levels: 28 days; for Fall in serum triglyceride levels: non-diabetic subjects with IRS, preliminary data
Description: In a 28-day clinical trial with sildenafil, serum triglyceride levels were obtained before and at the end of dosing from non-diabetic subjects. Doses included in the study were 10 mg, 25 mg and […] of sildenafil or placebo, dosed once daily. These subjects had the insulin resistance syndrome, as defined by the risk factors as defined hereinbefore. Data are presented in tables 5 and 6 below to illustrate that subjects had evidence of the insulin resistance syndrome. Coronary artery disease (CAD)/ischaemic heart disease (1HD) is one clinical end-point in subjects having the Insulin Resistance Syndrome. For this reason the presence of CAD/IHD was taken as evidence to support the existence of the Insulin Resistance Syndrome in patients with only one of the defined risk factors.

ob/ob mice [3] = experiment: Plasma glucose and triglyceride levels in ob/ob mice, compound administered in the drinking water, 5 day study; assay type: in vivo; settings: for Plasma Triglyceride Level: day 5, mean ± SEM; for Changes in Plasma Glucose Concentrations: over 5 day period, mean ± SEM
Description: as §1, §2, §3, §4, §5, §6

[4] = 10 mg once daily, baseline 255 mg/dl
[5] = 25 mg once daily, baseline 213 mg/dl
[6] = 50 mg once daily, baseline 191 mg/dl

CCCOc1ccc(S(=O)(=O)N2CCN(CC)CC2)cc1-c1nc2c(CC)n(Cc3ccccn3)nc2c(=O)[nH]1 [PDE5 A, 3-ethyl-5-[5-(4-ethylpiperazin-1-ylsulphonyl)-2-n-propoxyphenyl]-2-(pyridin-2-yl)methyl-2,6-dihydro-7H-pyrazolo[4,3-d]pyrimidin-7-one]
Changes in Plasma Glucose Concentrations (ob/ob mice [1]; 10 mg/kg oral gavage twice a day): -115 ± 34 mg/dL
Plasma Triglyceride Level (ob/ob mice [1]; 10 mg/kg oral gavage): 163 ± 10 mg/dL
Changes in Plasma Glucose Concentrations (ob/ob mice [1]; 50 mg/kg oral gavage twice a day): -105 ± 25 mg/dL

CCCc1nn(C)c2c(=O)[nH]c(-c3cc(C(=O)CN4CCOCC4)ccc3OCC)nc12 [PDE5 B, 5-(2-ethoxy-5-morpholinoacetylphenyl)-1-methyl-3-n-propyl-1,6-dihydro-7H-pyrazolo[4,3-d]pyrimidin-7-one]
Changes in Plasma Glucose Concentrations (ob/ob mice [1]; 25 mg/kg oral gavage twice a day): -97 ± 32 mg/dL
Plasma Triglyceride Level (ob/ob mice [1]; 25 mg/kg oral gavage): 143 ± 7^ mg/dl

CCCc1nn(C)c2c(=O)[nH]c(-c3cc(S(=O)(=O)N4CCN(C)CC4)ccc3OCC)nc12 [PDE5 C, 5-[2-ethoxy-5-(4-methyl-1-piperazinylsulphonyl)phenyl]-1-methyl-3-n-propyl-1,6-dihydro-7H-pyrazolo[4,3-d]pyrimidin-7-one]
Fall in serum triglycerides from baseline [2, 4]: about 40%
Fall in serum triglyceride levels [2, 4]: 100.3 mg/dL
Fall in serum triglycerides from baseline [2, 5]: ~31%
Fall in serum triglyceride levels [2, 5]: 67.3 mg/dL
Fall in serum triglycerides from baseline [2, 6]: ~12%
Fall in serum triglyceride levels [2, 6]: 23.9 mg/dL
Reduction of serum triglycerides compared to placebo ([2]; sildenafil group vs placebo, p=0.0457): statistically significantly different compared to placebo
HDL compared to placebo ([2]; sildenafil group vs placebo, p=0.0539): trend
Plasma Triglyceride Level (ob/ob mice [3]; 9 mg/kg in the drinking water): 163 ± 14 mg/dL
Changes in Plasma Glucose Concentrations (ob/ob mice [3]; 9 mg/kg in the drinking water): -27 ± 34 mg/dL
Plasma Triglyceride Level (ob/ob mice [3]; 22 mg/kg in the drinking water): 212 ± 20 mg/dL
Changes in Plasma Glucose Concentrations (ob/ob mice [3]; 22 mg/kg in the drinking water): -15 ± 27 mg/dL
Plasma Triglyceride Level (ob/ob mice [3]; 45 mg/kg in the drinking water): 151 ± 10 mg/dL
Changes in Plasma Glucose Concentrations (ob/ob mice [3]; 45 mg/kg in the drinking water): −36 ± 22^ mg/dl
